Laboratory results as given in paper PMC7618036, “An oral heme oxygenase inhibitor targets immunosuppressive perivascular macrophages in preclinical models of cancer” (Science translational medicine, 2025).

Tested on: CD8^+ T-cells in MMTV-PyMT tumors
Test: Flow cytometry of the TME of MMTV-PyMT tumors after 36 h treatment
Assay type: in vivo, mouse
Conditions: single-agent therapy
Protocol: At 36 h post treatment initiation of treatment mice were sacrificed and tumors were harvested and analyzed. (A) Schematic representing the dosing strategy. (B) The fold change of tumor growth over 36 h post initiation of treatment. (C-G) Tumors were enzyme-digested to release single cells which were analyzed for their live (7AAD^-) stromal cell composition using flow cytometry (n=5 tumors per group) (C) and CD8^+ T-cells (D). Gating strategy (left panel) and quantitation of CD8^+ T-cell subsets based on CD62L and CD44 expressions (right panel; TCM; T central memory cells, TEM; T effector memory cells, Teff; T effectors cells) (E), and the ability of the tumoral CD8^+ T-cells to secrete IFNγ post ex vivo exposure to PMA/ionomycin treatment (F). […] Scale bar is 100 µm and white arrows indicate infiltrating CD8^+ T-cells. […] Image in panel (A) was created using BioRender. Bar charts show the mean, error bars SD, and the dots show individual data points from individual tumors and mice. Gemc.; gemcitabine. * P<0.05, ** P<0.01, *** P<0.001.
MN-MCA1 sarcoma cells were orthotopically implanted into syngeneic C57Bl/6 mice for tumors. A total of 2.5 x 10^5 cells in 100 μL RPMI were injected subcutaneously into female mice. […] When tumors became palpable, volumes were measured every 2-4 days using digital caliper measurements of the long (L) and short (S) dimensions of the tumor. […]

In the case of O=c1[nH]cc(F)c(=O)[nH]1 [5-FU, 5-fluorouracil], the “abundance of CD8^+ T-cells in the TME” value is reported as “increase in the abundance of CD8^+ T-cells”.
